# Test results from PubChem BioAssay (NCI).
#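 Cells were grown in 96-well plates and exposed to each compound for 48 hours at five concentrations; endpoints were interpolated linearly between bracketing concentrations, or set to the highest concentration if not reached. GI50 is the concentration that inhibits growth by half. TGI marks complete inhibition of growth.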
# Tests used:
# Test in all cases: NCI tumour cell line growth inhibition, 48 h
# ACHN renal = test system: ACHN renal
# COLO 205 colon = test system: COLO 205 colon
# HCT-15 colon = test system: HCT-15 colon
# HOP-62 NSCLC = test system: HOP-62 NSCLC
# HT29 colon = test system: HT29 colon
# IGROV1 ovarian = test system: IGROV1 ovarian
# RPMI-8226 leukemia = test system: RPMI-8226 leukemia
# SF-295 CNS = test system: SF-295 CNS
# SF-539 CNS = test system: SF-539 CNS
SMILES,TGI (ACHN renal),TGI (COLO 205 colon),TGI (HCT-15 colon),TGI (HOP-62 NSCLC),TGI (HT29 colon),TGI (IGROV1 ovarian),TGI (RPMI-8226 leukemia),TGI (SF-295 CNS),TGI (SF-539 CNS),GI50 (HOP-62 NSCLC),GI50 (SF-539 CNS),GI50 (ACHN renal),GI50 (COLO 205 colon),GI50 (HCT-15 colon),GI50 (HT29 colon),GI50 (IGROV1 ovarian),GI50 (RPMI-8226 leukemia),GI50 (SF-295 CNS)
c1ccc(-c2cnc(-c3ccc(-c4ncc(-c5ccccc5)o4)cc3)o2)cc1,> 100 µM,> 100 µM,> 100 µM,> 100 µM,> 100 µM,> 100 µM,> 100 µM,> 100 µM,,,,,,,,,,
CCc1nc2cc3cccnc3c(Cl)c2[nH]c1=O,> 100 µM,> 100 µM,> 100 µM,> 100 µM,> 100 µM,> 100 µM,> 100 µM,> 100 µM,,,,,,,,,,
CSC(SC)=C1C(=O)N(c2ccccc2)N=C1C,> 100 µM,36.3 µM,> 100 µM,> 100 µM,> 100 µM,93.5 µM,,99.6 µM,> 100 µM,,,,,,,,,
Cc1ccc(-c2c(C#N)c(-c3ccc([N+](=O)[O-])cc3)c(C#N)c(=O)n2NS(=O)(=O)c2ccccc2)cc1,> 100 µM,> 100 µM,> 100 µM,> 100 µM,> 100 µM,> 100 µM,,> 100 µM,> 100 µM,,,,,,,,,
COC(=O)[C@H](Cc1ccccc1)NC(=O)c1ccc(CNC(=O)/C=C/c2cccc(Oc3ccccc3)c2)cc1,40.2 µM,42.1 µM,> 100 µM,> 100 µM,> 100 µM,42.6 µM,> 100 µM,> 100 µM,,,,,,,,,,
O=C(CNCc1ccccc1)Oc1c(Cl)c(Cl)c(Cl)c(Cl)c1Cl,51.1 µM,85.9 µM,61 µM,> 100 µM,> 100 µM,> 100 µM,,92.9 µM,95.6 µM,,,,,,,,,
c1csc(-c2c3ccc(=[N+]4CCCCC4)cc-3oc3cc(N4CCCCC4)ccc23)c1,,,,0.199 µM,,,,,0.195 µM,0.0648 µM,0.0446 µM,,,,,,,
COc1ccc(/C=N/N2C(=O)c3c(N)c(C#N)c(-c4ccccc4)c(-c4ccccc4)c3C2=O)cc1,> 100 µM,> 100 µM,> 100 µM,,,> 100 µM,> 100 µM,> 100 µM,> 100 µM,,,,,,,,,
COc1cc2c(cc1OC)C13CC[N+]4(C)CC5=CCOC6CC(=O)N2C1C6C5CC34[O-] (stereo unspecified),> 100 µM,> 100 µM,> 100 µM,> 100 µM,,> 100 µM,> 100 µM,> 100 µM,> 100 µM,,,,,,,,,
Cc1cn([C@H]2C[C@](C)(CO)N(C)O2)c(=O)[nH]c1=O,> 100 µM,> 100 µM,,> 100 µM,> 100 µM,> 100 µM,> 100 µM,> 100 µM,,,,,,,,,,
CC1(C)[C@@H](Cn2cnc3c(Cl)nc(N)nc32)CC[C@@]1(C)CO,> 100 µM,> 100 µM,> 100 µM,> 100 µM,,,89.2 µM,> 100 µM,> 100 µM,,,,,,,,,
S=C1CC(c2ccccc2)Sc2ccc(Cl)cc2N1 (stereo unspecified),> 100 µM,> 100 µM,> 100 µM,> 100 µM,> 100 µM,> 100 µM,> 100 µM,92.6 µM,,,,,,,,,,
C[C@]1(S(=O)(=O)c2ccccc2)C[C@H]2N(Cc3ccccc3)[C@@H]1CCC21OCCO1,> 100 µM,> 100 µM,> 100 µM,> 100 µM,> 100 µM,> 100 µM,,> 100 µM,,,,,,,,,,
CCN1C(=O)N(CC)C2Nn3c(s/c(=C4\C(=O)N(C)c5ccccc54)c3=O)=NC21 (stereo unspecified),> 100 µM,> 100 µM,> 100 µM,,> 100 µM,> 100 µM,> 100 µM,> 100 µM,,,,3.42 µM,2.26 µM,1.27 µM,2.33 µM,3.37 µM,3.97 µM,2.83 µM
O=C(O)CSC(NC(=O)C(C(F)(F)F)C(F)(F)F)(C(F)(F)F)C(F)(F)F,> 100 µM,> 100 µM,> 100 µM,,> 100 µM,> 100 µM,> 100 µM,,> 100 µM,,,,,,,,,
O=c1n(Cc2ccccc2)c(=O)n2c(=O)n(Cc3ccccc3)c(=O)n12,> 100 µM,> 100 µM,> 100 µM,,> 100 µM,,> 100 µM,> 100 µM,> 100 µM,,,,,,,,,
CC1=CC(=O)CC2(C)CCC(C(C)CC(=O)CC(C)C)CC12 (stereo unspecified),31.3 µM,31.8 µM,> 100 µM,,76.8 µM,72.5 µM,60.8 µM,> 100 µM,30 µM,,,,,,,,,
CCOC(=O)C(C)c1nc2c(Cl)c3ncccc3cc2[nH]c1=O (stereo unspecified),> 100 µM,> 100 µM,> 100 µM,> 100 µM,> 100 µM,> 100 µM,> 100 µM,> 100 µM,,,,,,,,,,
COc1ccc(-c2csc(NC(=O)CSc3nc(C)c(-c4ccccc4)n3Nc3ccccc3)n2)cc1,> 100 µM,> 100 µM,> 100 µM,> 100 µM,,> 100 µM,> 100 µM,> 100 µM,> 100 µM,47.8 µM,> 100 µM,> 100 µM,9.7 µM,6.9 µM,,4.25 µM,6.74 µM,0.566 µM
